Patent publication US10472599B2, “Microfluidic cell culture of patient-derived tumor cell spheroids” (Dana-Farber Cancer Institute, Inc., priority 2015, dated 2019)

Tests used:
Format in all cases: cell-based, human
[1] = system: spheroids derived from multiple different melanoma resection specimens; test: Light microscopy of immune response in patient-derived melanoma spheroids in 3D microfluidic culture; details: pembrolizumab 250 μg/mL
Procedure: On Day 1, tumor was collected in an operating room and placed in a sterile 15 mL conical tube bathed with culture media (10% FBS with DMEM or RPMI) and stored on ice. The media was aspirated in a sterile hood and the tumor specimen gently placed in a normal 10 cm culture dish on ice. Using a scalpel, the tumor was minced into smaller pieces. A sample can optionally be exposed to strong collagenase treatment to generate single cells that can be submitted directly for flow cytometry. To the 10 cm dish containing the minced tumor was added 10 mL of collagenase solution (10 mL media, 150 μL HEPES (15 mM final concentration), 100 μL collagenase (100 U/μL stock, 1 unit/μL final concentration)). The minced tumor and collagenase mixture was subsequently transferred to a 50 mL conical tube, and then transferred to a fresh low-attachment 10 cm dish. The low-attachment dish comprising the sample was incubated at 37° C. for 30-60 minutes while checking every 15-30 minutes, as the duration of time required varies from specimen to specimen. The intended outcome of this step is to generate multicellular spheroids via a limited collagenase digestion, so the sample should not be comprised entirely of single cells. After the […] incubation period, 10 mL of fresh media was added to the dish containing the tumor sample and the contents (˜20 mL) transferred to a 50 mL conical tube. […]

[2] = system: spheroids derived from multiple different melanoma resection specimens; test: Luminex cytokine profiling of conditioned media from melanoma spheroid culture
Procedure: On Day 3, media was aspirated from the device and ˜200 μL media (1:1 mixture of 10% FBS-DMEM and EGM2 supplemented with growth factors per protocol) with or without treatment (e.g., anti-PD-1 monoclonal Ab) were added to each device. The devices were subsequently placed in humidified, sterile containers, and returned to 37° C. incubation.
On Day 6 (or 48-72 hours post-treatment), conditioned media was collected for cytokine analysis. Light microscopy was performed and images obtained to characterize and document spheroid dispersal and/or putative immune response, which is commonly characterized by non-pigmented cells surrounding the brown-pigmented melanoma spheroids. Media was collected from each device by aspiration using a 200 μL pipet, transferred to sterile 1.5 mL Eppendorf tubes, and frozen at −80° C. prior to submission to CMOP for multiplex cytokine/chemokine analysis. Also on Day 6, the cells present in the 3D culture device following treatment were characterized by multiple methods.
As the spheroids and co-cultured endothelial cells are bathed in media, the conditioned media was extracted from the device and luminex cytokine profiling was performed.

melanoma tumor spheroids = test: Flow cytometry immune profiling of cells extracted from the device post-treatment
Procedure: For flow cytometry, RNA sequencing analysis, or T-cell receptor (TCR) sequencing the cells were removed using collagenase (150 μL per device) after media had been removed. […] The cells in collagenase were aspirated into a 15 mL conical tube containing 4.0 mL of sterile 1× PBS and spun down for 5 minutes at 1100 rpm. The PBS wash was gently aspirated and the pellet resuspended in 1.5 mL 10% FBS-DMEM for flow cytometry. In some instances, genomic DNA is prepared from flow-sorted T lymphocytes for TCR sequencing using the ImmunoSeq platform from Adaptive Biotechnologies to evaluate T-cell receptor clonality. Clonality can be assessed in spheroids relative to bulk tumor, and in response to immune checkpoint blockade to evaluate for increased TCR clonality (indicating expansion of tumor-reactive T cell clones). For RNA sequencing, the resuspension can be performed using 1.5 mL 10% FBS-DMEM, PBS, or a compatible lysis buffer.
Additionally, although it was demonstrable by flow cytometry of melanoma tumor spheroids at baseline that they consisted of up to 20% immune cells, including T cells, dendritic cells, monocytes (not shown), the value of extracting cells from the device and repeating flow cytometry post-treatment was realized. By repeating collagenase digestion within the device and washing cells in PBS, conditions have been developed that enable repeat immune profiling. […]

pembrolizumab
immune response ([1]; absence of anti-CD28 co-stimulation (FIG. 4A)): observed immune response
immune response ([1]; presence of anti-CD28 co-stimulation (FIG. 4B)): observed immune response
certain cytokines (e.g., IP10) in conditioned media ([2]; combination with anti-CD28 (FIG. 5)): induced
cytokines in conditioned media ([2]; following αPD1 exposure (FIG. 5)): pronounced up-regulation of multiple cytokines
markers of early CD8 T cell activation such as CD69 (melanoma tumor spheroids; post-treatment flow cytometry (FIG. 6A)): observed increase
specific immune checkpoint receptors such as TIM3 (melanoma tumor spheroids; post-treatment flow cytometry (FIG. 6B)): increase
